Data published in ChEMBL document CHEMBL1157802, “5-Functionalized indazoles as glucocorticoid receptor agonists” (Bioorg Med Chem Lett, 2010).

Assays:
Glucocorticoid receptor = target: T1, Glucocorticoid receptor (Homo sapiens, UniProt P04150)
T1 sequence (P04150 whole entry): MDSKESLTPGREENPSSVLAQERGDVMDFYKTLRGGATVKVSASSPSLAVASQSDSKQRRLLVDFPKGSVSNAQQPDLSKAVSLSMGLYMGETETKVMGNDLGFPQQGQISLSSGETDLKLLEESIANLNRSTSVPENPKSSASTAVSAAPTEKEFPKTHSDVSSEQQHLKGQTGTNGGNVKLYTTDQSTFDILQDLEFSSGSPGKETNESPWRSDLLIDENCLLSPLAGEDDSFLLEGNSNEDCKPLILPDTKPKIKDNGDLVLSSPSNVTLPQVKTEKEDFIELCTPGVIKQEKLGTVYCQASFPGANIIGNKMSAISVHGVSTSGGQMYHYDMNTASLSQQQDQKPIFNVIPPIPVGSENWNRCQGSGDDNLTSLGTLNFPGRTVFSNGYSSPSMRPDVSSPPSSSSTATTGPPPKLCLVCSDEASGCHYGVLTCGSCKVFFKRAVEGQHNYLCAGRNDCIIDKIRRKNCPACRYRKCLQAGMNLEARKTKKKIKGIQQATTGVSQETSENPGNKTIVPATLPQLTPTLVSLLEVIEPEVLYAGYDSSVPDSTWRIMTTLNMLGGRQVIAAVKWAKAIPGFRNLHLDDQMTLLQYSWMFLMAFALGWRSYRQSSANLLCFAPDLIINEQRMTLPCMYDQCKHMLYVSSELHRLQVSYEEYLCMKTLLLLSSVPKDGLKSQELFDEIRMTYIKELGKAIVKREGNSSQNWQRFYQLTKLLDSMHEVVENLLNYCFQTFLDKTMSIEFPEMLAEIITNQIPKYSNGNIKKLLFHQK
Description: Binding affinity to human glucocorticoid receptor by fluorescence polarization competitive binding assay

[1] = target: Prostaglandin E2 receptor EP4 subtype (Homo sapiens) (UniProt P35408); experiment: Inhibition of prostanoid EP4 receptor at 1 uM
Prostaglandin E2 receptor EP4 subtype (Homo sapiens), sequence (P35408 whole entry): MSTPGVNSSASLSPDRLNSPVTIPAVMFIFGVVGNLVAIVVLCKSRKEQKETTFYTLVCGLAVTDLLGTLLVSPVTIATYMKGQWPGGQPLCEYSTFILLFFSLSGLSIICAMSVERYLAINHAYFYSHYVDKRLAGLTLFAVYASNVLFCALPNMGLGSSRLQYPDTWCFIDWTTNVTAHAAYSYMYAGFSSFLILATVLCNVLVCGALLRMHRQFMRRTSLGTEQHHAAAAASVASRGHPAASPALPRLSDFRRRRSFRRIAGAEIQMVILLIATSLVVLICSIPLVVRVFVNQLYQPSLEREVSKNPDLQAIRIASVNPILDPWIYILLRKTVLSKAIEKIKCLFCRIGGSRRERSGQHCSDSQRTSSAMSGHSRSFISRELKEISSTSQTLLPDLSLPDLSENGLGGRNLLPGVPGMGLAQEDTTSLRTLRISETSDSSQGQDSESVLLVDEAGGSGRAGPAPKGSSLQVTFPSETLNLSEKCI

[2] = target: Muscarinic acetylcholine receptor M3 (Homo sapiens) (UniProt P20309); experiment: Inhibition of muscarinic M3 receptor at 1 uM
Muscarinic acetylcholine receptor M3 (Homo sapiens), sequence (P20309 whole entry, looked up): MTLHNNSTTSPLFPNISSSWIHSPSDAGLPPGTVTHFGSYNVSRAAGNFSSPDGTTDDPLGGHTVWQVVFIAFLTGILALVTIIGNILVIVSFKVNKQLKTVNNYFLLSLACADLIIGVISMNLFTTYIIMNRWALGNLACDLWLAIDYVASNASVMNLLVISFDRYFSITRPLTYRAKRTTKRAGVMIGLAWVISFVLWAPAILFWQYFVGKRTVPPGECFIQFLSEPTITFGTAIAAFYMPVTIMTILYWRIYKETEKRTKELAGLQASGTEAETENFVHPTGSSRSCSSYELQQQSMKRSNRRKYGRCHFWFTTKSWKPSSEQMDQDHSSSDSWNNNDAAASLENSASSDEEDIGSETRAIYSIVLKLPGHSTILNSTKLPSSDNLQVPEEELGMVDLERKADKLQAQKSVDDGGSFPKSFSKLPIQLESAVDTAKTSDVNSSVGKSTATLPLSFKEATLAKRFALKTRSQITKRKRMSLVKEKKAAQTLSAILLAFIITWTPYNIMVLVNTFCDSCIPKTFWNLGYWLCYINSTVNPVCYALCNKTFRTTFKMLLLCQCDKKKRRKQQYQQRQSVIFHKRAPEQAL

[3] = Inhibition of central imidazoline I2 receptor at 1 uM
[4] = target: D(2) dopamine receptor (Homo sapiens) (UniProt P14416); experiment: Inhibition of dopamine D2S receptor at 1 uM
D(2) dopamine receptor (Homo sapiens), sequence (P14416 whole entry): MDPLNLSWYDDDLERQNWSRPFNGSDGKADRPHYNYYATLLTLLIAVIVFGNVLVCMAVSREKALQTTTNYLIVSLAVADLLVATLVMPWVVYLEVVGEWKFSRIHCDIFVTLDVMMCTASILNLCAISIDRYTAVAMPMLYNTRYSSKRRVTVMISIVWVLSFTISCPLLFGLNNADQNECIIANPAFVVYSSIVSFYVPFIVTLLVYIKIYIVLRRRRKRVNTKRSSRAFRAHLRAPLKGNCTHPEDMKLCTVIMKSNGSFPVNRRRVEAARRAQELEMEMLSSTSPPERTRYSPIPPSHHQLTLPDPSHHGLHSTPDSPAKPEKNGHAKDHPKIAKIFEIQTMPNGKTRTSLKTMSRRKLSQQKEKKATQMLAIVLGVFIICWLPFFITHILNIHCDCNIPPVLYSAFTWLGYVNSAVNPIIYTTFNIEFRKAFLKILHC

[5] = Inhibition of NMDA receptor at 1 uM
[6] = target: Histamine H1 receptor (Homo sapiens) (UniProt P35367); experiment: Inhibition of histamine H1 receptor at 1 uM
Histamine H1 receptor (Homo sapiens), sequence (P35367 whole entry): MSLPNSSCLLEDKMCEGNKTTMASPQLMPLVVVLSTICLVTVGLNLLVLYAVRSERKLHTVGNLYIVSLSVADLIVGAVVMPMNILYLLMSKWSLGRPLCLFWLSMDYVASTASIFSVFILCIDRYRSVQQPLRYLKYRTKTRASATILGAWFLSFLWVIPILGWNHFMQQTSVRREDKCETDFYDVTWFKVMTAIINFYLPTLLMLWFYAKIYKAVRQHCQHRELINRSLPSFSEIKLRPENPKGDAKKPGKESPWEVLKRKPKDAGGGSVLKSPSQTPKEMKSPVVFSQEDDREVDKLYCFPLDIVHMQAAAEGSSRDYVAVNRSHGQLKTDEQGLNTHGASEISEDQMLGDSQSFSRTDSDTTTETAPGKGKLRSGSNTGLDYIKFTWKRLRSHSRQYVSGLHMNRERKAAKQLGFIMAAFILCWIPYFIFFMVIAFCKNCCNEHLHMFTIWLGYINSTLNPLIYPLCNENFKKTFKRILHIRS

[7] = Inhibition of ATP-sensitive potassium channel at 1 uM
[8] = Inhibition of phorbol ester site of PKC at 1 uM
[9] = Inhibition of sigma 2 receptor at 1 uM
[10] = target: Adenosine receptor A2a (Homo sapiens) (UniProt P29274); experiment: Inhibition of adenosine A2A receptor at 1 uM
[11] = Inhibition of phencyclidine receptor at 1 uM
[12] = Inhibition of rolipram binding site at 1 uM
[13] = target: T2, Alpha-1A adrenergic receptor (Homo sapiens) (UniProt P35348); experiment: Inhibition of adrenergic alpha1A receptor at 1 uM
T2 sequence (whole entry): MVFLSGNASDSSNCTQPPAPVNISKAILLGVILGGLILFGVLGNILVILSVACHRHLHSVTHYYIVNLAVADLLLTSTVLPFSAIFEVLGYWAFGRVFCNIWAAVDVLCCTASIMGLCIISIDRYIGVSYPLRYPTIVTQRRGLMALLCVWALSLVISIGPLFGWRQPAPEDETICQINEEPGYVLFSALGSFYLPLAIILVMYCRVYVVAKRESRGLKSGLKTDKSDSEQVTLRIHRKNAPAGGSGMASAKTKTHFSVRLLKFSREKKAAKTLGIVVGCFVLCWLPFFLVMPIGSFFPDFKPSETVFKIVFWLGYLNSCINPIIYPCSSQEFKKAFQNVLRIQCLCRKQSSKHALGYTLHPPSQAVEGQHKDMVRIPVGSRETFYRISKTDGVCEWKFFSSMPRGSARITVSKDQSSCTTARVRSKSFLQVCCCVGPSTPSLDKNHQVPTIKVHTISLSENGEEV

[14] = target: Mu-type opioid receptor (Homo sapiens) (UniProt P35372); experiment: Inhibition of mu opioid receptor at 1 uM
Mu-type opioid receptor (Homo sapiens), sequence (P35372 whole entry): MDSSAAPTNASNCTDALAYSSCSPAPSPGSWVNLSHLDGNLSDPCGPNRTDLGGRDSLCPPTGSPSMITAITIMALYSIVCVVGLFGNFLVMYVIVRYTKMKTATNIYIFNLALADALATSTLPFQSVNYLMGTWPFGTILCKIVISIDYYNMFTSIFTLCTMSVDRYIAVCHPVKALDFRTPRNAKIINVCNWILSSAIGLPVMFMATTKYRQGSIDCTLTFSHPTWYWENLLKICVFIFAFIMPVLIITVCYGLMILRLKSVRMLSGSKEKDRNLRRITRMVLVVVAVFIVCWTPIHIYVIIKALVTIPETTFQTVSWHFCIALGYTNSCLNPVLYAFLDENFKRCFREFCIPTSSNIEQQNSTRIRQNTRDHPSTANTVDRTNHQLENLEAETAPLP

[15] = Inhibition of GABAA receptor agonist site at 1 uM; type: functional
[16] = target: T3, Muscarinic acetylcholine receptor M2 (Homo sapiens) (UniProt P08172); experiment: Inhibition of muscarinic M2 receptor at 1 uM
T3 sequence (whole entry): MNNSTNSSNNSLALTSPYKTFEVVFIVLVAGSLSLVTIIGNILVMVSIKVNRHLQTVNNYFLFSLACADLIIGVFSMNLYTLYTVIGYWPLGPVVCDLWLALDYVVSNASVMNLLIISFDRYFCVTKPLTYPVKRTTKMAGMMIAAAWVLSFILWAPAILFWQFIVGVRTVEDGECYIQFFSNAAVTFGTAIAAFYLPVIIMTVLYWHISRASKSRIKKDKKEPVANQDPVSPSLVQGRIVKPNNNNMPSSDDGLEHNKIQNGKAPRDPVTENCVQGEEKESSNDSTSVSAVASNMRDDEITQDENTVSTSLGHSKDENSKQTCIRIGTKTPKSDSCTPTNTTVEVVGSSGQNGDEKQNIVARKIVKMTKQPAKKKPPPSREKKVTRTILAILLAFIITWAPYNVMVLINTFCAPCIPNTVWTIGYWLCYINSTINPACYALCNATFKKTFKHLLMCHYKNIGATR

[17] = target: T4, Alpha-1B adrenergic receptor (Homo sapiens) (UniProt P35368); experiment: Inhibition of adrenergic Alpha-1B receptor at 1 uM
T4 sequence (whole entry): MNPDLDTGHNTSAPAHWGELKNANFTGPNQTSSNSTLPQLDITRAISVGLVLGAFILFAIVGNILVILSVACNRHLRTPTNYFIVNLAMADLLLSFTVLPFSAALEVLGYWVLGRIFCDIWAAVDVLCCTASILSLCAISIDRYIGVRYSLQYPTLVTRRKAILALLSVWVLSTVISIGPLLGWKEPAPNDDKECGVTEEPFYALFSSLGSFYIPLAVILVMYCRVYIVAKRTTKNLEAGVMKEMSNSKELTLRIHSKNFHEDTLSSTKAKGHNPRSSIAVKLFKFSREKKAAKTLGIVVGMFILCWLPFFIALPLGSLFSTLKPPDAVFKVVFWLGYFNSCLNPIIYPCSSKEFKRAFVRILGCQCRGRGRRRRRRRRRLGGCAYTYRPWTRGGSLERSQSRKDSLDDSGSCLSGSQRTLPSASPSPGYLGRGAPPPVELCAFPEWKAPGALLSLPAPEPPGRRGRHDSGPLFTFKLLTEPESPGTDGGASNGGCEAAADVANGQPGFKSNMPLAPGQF

[18] = target: Sodium-dependent noradrenaline transporter (Homo sapiens) (UniProt P23975); experiment: Inhibition of norepinephrine transporter at 1 uM
Sodium-dependent noradrenaline transporter (Homo sapiens), sequence (P23975 whole entry): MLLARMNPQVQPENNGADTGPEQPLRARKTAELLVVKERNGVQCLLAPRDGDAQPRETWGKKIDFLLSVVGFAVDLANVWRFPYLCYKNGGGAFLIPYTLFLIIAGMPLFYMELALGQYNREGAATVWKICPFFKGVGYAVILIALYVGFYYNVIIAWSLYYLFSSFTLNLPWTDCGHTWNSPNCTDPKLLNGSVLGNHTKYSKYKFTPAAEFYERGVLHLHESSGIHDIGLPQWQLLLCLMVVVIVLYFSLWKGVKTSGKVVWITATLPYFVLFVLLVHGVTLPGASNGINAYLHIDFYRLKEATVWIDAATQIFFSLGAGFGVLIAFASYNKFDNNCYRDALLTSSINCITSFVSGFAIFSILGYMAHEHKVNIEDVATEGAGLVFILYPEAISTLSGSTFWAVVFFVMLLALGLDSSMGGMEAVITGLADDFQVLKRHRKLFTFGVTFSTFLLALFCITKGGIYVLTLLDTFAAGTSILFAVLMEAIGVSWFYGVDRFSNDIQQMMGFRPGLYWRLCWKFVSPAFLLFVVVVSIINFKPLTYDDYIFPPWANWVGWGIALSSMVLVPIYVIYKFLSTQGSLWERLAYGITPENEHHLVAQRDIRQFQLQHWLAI

[19] = Inhibition of nicotinic acetylcholine receptor at 1 uM
[20] = target: T5, Adenosine receptor A1 (Homo sapiens) (UniProt P30542); experiment: Inhibition of adenosine A1 receptor at 1 uM
T5 sequence (whole entry): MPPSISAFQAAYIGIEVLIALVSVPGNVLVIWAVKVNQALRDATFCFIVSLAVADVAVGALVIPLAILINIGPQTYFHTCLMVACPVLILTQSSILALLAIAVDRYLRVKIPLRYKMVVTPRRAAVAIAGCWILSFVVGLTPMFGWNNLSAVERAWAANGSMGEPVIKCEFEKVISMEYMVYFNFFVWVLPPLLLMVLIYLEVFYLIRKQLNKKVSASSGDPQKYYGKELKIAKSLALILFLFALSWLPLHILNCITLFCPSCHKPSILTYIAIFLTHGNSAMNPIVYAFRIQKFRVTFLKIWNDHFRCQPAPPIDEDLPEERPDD

[21] = target: D(1A) dopamine receptor (Homo sapiens) (UniProt P21728); experiment: Inhibition of dopamine D1 receptor at 1 uM
D(1A) dopamine receptor (Homo sapiens), sequence (P21728 whole entry): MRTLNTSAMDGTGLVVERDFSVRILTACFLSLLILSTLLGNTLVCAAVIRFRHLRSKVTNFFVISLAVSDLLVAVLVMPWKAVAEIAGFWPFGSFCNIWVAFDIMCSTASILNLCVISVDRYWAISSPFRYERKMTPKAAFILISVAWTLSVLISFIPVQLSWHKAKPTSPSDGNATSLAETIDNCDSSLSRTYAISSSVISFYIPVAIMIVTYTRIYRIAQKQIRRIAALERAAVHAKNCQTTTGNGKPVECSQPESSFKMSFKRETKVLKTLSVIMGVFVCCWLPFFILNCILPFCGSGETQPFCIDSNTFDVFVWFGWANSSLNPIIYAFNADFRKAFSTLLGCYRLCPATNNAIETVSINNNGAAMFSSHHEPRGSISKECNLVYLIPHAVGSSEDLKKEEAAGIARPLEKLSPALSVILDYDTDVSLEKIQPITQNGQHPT

[22] = Inhibition of sodium channel site 2 at 1 uM
[23] = Inhibition of calcium channel L type dihydropyridine binding site at 1 uM
[24] = target: T6, Alpha-2A adrenergic receptor (Homo sapiens) (UniProt P08913); experiment: Inhibition of adrenergic alpha2A receptor at 1 uM
T6 sequence (whole entry): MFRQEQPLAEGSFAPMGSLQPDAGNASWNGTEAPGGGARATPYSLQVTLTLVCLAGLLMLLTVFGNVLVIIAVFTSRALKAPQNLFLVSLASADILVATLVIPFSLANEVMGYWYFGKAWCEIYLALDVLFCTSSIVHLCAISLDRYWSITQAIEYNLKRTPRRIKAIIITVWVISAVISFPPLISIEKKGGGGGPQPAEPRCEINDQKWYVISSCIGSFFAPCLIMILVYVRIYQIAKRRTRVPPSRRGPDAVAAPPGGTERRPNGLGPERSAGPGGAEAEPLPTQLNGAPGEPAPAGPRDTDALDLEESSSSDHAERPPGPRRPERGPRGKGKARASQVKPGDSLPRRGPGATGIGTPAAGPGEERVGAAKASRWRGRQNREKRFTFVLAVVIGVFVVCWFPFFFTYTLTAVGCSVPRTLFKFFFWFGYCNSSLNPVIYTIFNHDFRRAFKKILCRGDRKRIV

[25] = target: Beta-2 adrenergic receptor (Homo sapiens) (UniProt P07550); experiment: Inhibition of adrenergic beta2 receptor at 1 uM
Beta-2 adrenergic receptor (Homo sapiens), sequence (P07550 whole entry, looked up): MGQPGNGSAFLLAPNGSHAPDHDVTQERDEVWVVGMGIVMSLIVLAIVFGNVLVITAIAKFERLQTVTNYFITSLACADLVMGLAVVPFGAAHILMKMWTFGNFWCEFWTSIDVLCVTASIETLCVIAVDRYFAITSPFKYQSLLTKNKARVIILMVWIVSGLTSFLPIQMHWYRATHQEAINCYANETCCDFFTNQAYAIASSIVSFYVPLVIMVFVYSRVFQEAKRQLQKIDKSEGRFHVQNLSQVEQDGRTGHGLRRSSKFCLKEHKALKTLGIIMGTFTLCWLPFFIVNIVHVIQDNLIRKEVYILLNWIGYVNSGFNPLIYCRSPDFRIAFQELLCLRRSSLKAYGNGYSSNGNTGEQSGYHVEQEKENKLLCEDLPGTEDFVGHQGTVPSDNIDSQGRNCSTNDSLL

[26] = target: Sigma non-opioid intracellular receptor 1 (Homo sapiens) (UniProt Q99720); experiment: Inhibition of sigma 1 receptor at 1 uM
Sigma non-opioid intracellular receptor 1 (Homo sapiens), sequence (Q99720 whole entry): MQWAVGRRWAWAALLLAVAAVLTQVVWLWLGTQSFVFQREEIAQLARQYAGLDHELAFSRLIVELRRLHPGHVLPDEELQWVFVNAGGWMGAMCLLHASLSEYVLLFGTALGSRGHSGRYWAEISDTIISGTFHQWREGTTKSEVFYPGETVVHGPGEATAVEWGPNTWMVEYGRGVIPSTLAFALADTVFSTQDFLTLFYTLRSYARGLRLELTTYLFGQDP

[27] = Inhibition of central benzodiazepine receptor at 1 uM
[28] = Inhibition of nicotinic bungarotoxin-sensitive acetylcholine receptor at 1 uM
[29] = target: Beta-1 adrenergic receptor (Homo sapiens) (UniProt P08588); experiment: Inhibition of adrenergic beta-1 receptor at 1 uM
Beta-1 adrenergic receptor (Homo sapiens), sequence (P08588 whole entry, looked up): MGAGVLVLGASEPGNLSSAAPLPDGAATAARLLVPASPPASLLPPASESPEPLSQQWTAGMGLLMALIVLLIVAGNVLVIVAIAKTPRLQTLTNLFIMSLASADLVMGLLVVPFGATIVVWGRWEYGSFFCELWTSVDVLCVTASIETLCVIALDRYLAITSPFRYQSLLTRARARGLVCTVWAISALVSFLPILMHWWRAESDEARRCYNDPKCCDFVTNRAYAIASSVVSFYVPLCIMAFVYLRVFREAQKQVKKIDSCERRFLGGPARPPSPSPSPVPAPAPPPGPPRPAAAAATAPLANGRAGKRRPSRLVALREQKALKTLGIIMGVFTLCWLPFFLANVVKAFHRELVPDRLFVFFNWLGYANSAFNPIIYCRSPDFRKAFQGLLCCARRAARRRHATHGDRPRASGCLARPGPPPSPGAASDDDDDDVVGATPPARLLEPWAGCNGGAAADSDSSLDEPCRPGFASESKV

OC(c1ccc(Cl)c(Cl)c1)(c1ccc2c(cnn2-c2ccc(F)cc2)c1)C(F)(F)F (stereo not given)
IC50 (Glucocorticoid receptor): 178 nM

OC(c1ccc(F)cc1)(c1ccc2c(cnn2-c2ccc(F)cc2)c1)C(F)(F)F (stereo in doubt; 12) [2,2,2-TRIFLUORO-1-(4-FLUOROPHENYL)-1-(1-(4-FLUOROPHENYL)-1H-INDAZOL-5-YL)ETHANOL (DIASTEREOMERIC MIX)]
IC50 (Glucocorticoid receptor): 161 nM

Cc1cccc(C(O)(c2ccc3c(cnn3-c3ccc(F)cc3)c2)C(F)(F)F)c1 (stereo not given)
IC50 (Glucocorticoid receptor): 52 nM

OC(c1ccc(F)c(Cl)c1)(c1ccc2c(cnn2-c2ccc(F)cc2)c1)C(F)(F)F (stereo in doubt; 18) [1-(3-CHLORO-4-FLUOROPHENYL)-2,2,2-TRIFLUORO-1-(1-(4-FLUOROPHENYL)-1H-INDAZOL-5-YL)ETHANOL (ENANTIOMERIC MIX)]
IC50 (Glucocorticoid receptor): 117 nM

N#Cc1cc(C(O)(c2ccc3c(cnn3-c3ccc(F)cc3)c2)C(F)(F)F)ccc1F (stereo not given)
IC50 (Glucocorticoid receptor): 30 nM

N#Cc1cccc(C(O)(c2ccc3c(cnn3-c3ccc(F)cc3)c2)C(F)(F)F)c1 (stereo not given)
IC50 (Glucocorticoid receptor): 99 nM

OC(c1ccc2c(cnn2-c2ccc(F)cc2)c1)(c1cccc(Cl)c1Cl)C(F)(F)F (stereo in doubt; 23) [1-(2,3-DICHLOROPHENYL)-2,2,2-TRIFLUORO-1-(1-(4-FLUOROPHENYL)-1H-INDAZOL-5-YL)ETHANOL (ENANTIOMERIC MIX)]
IC50 (Glucocorticoid receptor): 87 nM

OC(c1ccc2c(cnn2-c2ccc(F)cc2)c1)(c1ccccc1Cl)C(F)(F)F (stereo not given)
IC50 (Glucocorticoid receptor): 35 nM

OC(c1ccc(F)c(Cl)c1)(c1ccc2c(cnn2-c2ccc(F)cc2)c1)C(F)(F)F (single isomer, unassigned; (-))
inhibition [1]: < 50%
inhibition [2]: < 50%
inhibition [3]: < 50%
inhibition [4]: < 50%
inhibition [5]: < 50%
inhibition [6]: < 50%
inhibition [7]: < 50%
inhibition [8]: < 50%
inhibition [9]: < 50%
inhibition [10]: < 50%
inhibition [11]: < 50%
inhibition [12]: < 50%
inhibition [13]: < 50%
inhibition [14]: < 50%
inhibition [15]: < 50%
inhibition [16]: < 50%
inhibition [17]: < 50%
inhibition [18]: < 50%
inhibition [19]: < 50%
inhibition [20]: < 50%
inhibition [21]: < 50%
inhibition [22]: < 50%
inhibition [23]: < 50%
inhibition [24]: < 50%
inhibition [25]: < 50%
inhibition [26]: < 50%
inhibition [27]: < 50%
inhibition [28]: < 50%
inhibition [29]: < 50%

OC(c1ccc2c(cnn2-c2ccc(F)cc2)c1)(c1ccccc1F)C(F)(F)F (stereo not given)
IC50 (Glucocorticoid receptor): 54 nM

OC(c1ccc(F)cc1)(c1ccc2c(cnn2-c2ccc(F)cc2)c1)C(F)(F)F (single isomer, unassigned; (-)) [2,2,2-TRIFLUORO-1-(4-FLUOROPHENYL)-1-(1-(4-FLUOROPHENYL)-1H-INDAZOL-5-YL)ETHANOL (DIASTEREOMERIC MIX)]
IC50 (Glucocorticoid receptor): 86 nM

OC(c1ccc(F)cc1)c1ccc2c(cnn2-c2ccc(F)cc2)c1 (stereo not given)
IC50 (Glucocorticoid receptor): 10000 nM

OC(c1cccc(Cl)c1)(c1ccc2c(cnn2-c2ccc(F)cc2)c1)C(F)(F)F (stereo not given)
IC50 (Glucocorticoid receptor): 72 nM

Cc1ccc(C(O)(c2ccc3c(cnn3-c3ccc(F)cc3)c2)C(F)(F)F)cc1 (stereo not given)
IC50 (Glucocorticoid receptor): 2090 nM

CC(O)(c1ccc(F)cc1)c1ccc2c(cnn2-c2ccc(F)cc2)c1 (stereo not given)
IC50 (Glucocorticoid receptor): 2110 nM

Cc1ccccc1C(O)(c1ccc2c(cnn2-c2ccc(F)cc2)c1)C(F)(F)F (stereo not given)
IC50 (Glucocorticoid receptor): 282 nM

OC(c1ccc(F)cc1)(c1ccc2c(cnn2-c2ccc(F)cc2)c1)C(F)(F)F (single isomer, unassigned; (+)) [2,2,2-TRIFLUORO-1-(4-FLUOROPHENYL)-1-(1-(4-FLUOROPHENYL)-1H-INDAZOL-5-YL)ETHANOL (DIASTEREOMERIC MIX)]
IC50 (Glucocorticoid receptor): 3000 nM
